Measurements reported in patent US20260123654A1, “METHOD FOR IMPROVING THE BIOAVAILABILITY OF FUNCTIONAL FOOD PRODUCTS” (priority 2022, published 2026).

How the values were obtained:
[1] = Omega-3 index in male volunteers after intake of capsules; format: in vivo; conditions: xenon 5-250 vol. %, krypton 5-70 vol. % in Epax 5025 TGN
Protocol: Testing was carried out on 14 male volunteers, age from 38 to 47 years. Control and 5 experimental groups of 2 people each. […] For testing the control group, the product used was Epax Ultra Concentrates (Epax 5025 TGN), manufactured by Epax Norway AS. For experimental group 1 xenon was introduced into the product in concentration of 5 vol. %; for experimental group 2-20 vol. %; for experimental group 3-250 vol. %; for experimental group 4-krypton-5 vol. %; for experimental group 5-24 vol. %; for experimental group 6-70 vol. %. A product saturation with gases was done as described above, but at a small overpressure: krypton at 2.0 mPa, and xenon—0.2 mPa. All products (for control and experimental groups) were encapsulated in soft gelatin capsules weighing 0.5 g. All volunteers took 4 capsules per day, 2 in the morning and 2 in the evening, on an empty stomach. Omega-3 index tests were again taken after 1 month.

[2] = when injected into the body; cited from earlier work
[3] = Triacylglycerols (TAG) content in rat serum after bolus intragastric administration of olive oil; format: in vivo, Wistar rats; conditions: 1, 2, and 3 hours after bolus intragastric administration of olive oil; xenon 280 vol. %, krypton 24 vol. %
Protocol: Studies on the effect of xenon on the absorption and transport of triacylglycerols were carried out in an experiment as described [Wang Z., Wang L., Zhang Z., Feng L., Song X., & Wu J. Apolipoprotein A-IV involves in glucose and lipid metabolism of rat//Nutrition & metabolism.-2019.-T. 16.- ? 1.-P. 1-9.], were performed on 12 Wistar rats weighing 320-360 g.
All animals were divided into 3 groups: 1-control, 2-experimental, 3-experimental. The animals were fasted for 6 hours before the experiment, and then rats of the control group (n=4) were injected intragastrically with bolus Extra Virgin olive oil (Aceites Toledo, Spain) at a dose of 1 ml/100 g body weight. […]
An introduction of gases into the oils was carried out using an emulsion production reactor with a volume of 11. […] A content of xenon and krypton in the oil was determined by a gas chromatography method. […]
Triacylglycerols (TAG) content was immediately determined in blood serum using enzyme kits from Chronolab (Spain). For this purpose, 10 μl of serum or standard TAG solution was added to 1 ml of a working reagent, incubated for 5 min at […] in a thermostat and an optical density at 500 nm was determined on a spectrophotometer.

SMILES	effect on Omega-3 index [1]	time to complete elimination of the gas from the body [2]	TAG levels versus control [3]
[Xe] [xenon]	dose-dependent increase	≤ 4 h	significant increase
[Kr] [krypton]	dose-dependent increase		significant increase
